Assays:
Format in all cases: in vivo
Details in all cases: 250 g/ha, evaluated after 13 days
[1] = tested on: Amaranthus palmeri (AMAPA); assay: Post-emergence herbicide glasshouse test
Outline: (§1)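 Species sown in standard soil and sprayed 1 day (pre-emergence) or 8 days (post-emergence) after sowing, at 250 g/ha unless noted, in acetone/water (50:50) with 0.5% Tween 20. Glasshouse at 24/16 °C day/night, 14 h light, 65% humidity. Percentage damage scored after 13 days on a 1–5 scale (5=81–100%, 1=0–20%).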

[2] = tested on: Amaranthus retoflexus (AMARE); assay: Post-emergence herbicide glasshouse test
Outline: as §1

[3] = tested on: Echinochloa crus-galli (ECHCG); assay: Post-emergence herbicide glasshouse test
Outline: as §1

[4] = tested on: Ipomoea hederacea (IPOHE); assay: Post-emergence herbicide glasshouse test
Outline: as §1

[5] = tested on: Amaranthus palmeri (AMAPA); assay: Pre-emergence herbicide glasshouse test
Outline: as §1

[6] = tested on: Amaranthus retoflexus (AMARE); assay: Pre-emergence herbicide glasshouse test
Outline: as §1

[7] = tested on: Echinochloa crus-galli (ECHCG); assay: Pre-emergence herbicide glasshouse test
Outline: as §1

[8] = tested on: Ipomoea hederacea (IPOHE); assay: Pre-emergence herbicide glasshouse test
Outline: as §1

| Structure (SMILES) | percentage damage caused to the plant, AMAPA (five-point scale) [1] | percentage damage caused to the plant, AMARE (five-point scale) [2] | percentage damage caused to the plant, ECHCG (five-point scale) [3] | percentage damage caused to the plant, IPOHE (five-point scale) [4] | percentage damage caused to the plant, AMAPA (five-point scale) [5] | percentage damage caused to the plant, AMARE (five-point scale) [6] | percentage damage caused to the plant, ECHCG (five-point scale) [7] | percentage damage caused to the plant, IPOHE (five-point scale) [8] |
| --- | --- | --- | --- | --- | --- | --- | --- | --- |
| FC(F)(F)c1cn(Cc2nc(C3CC3)no2)c(-c2ccc(Cl)nc2)n1 [Compound 1.138] | 1 (1=0-20%) | 1 (1=0-20%) | 1 (1=0-20%) | 2 (2=21-40%) | 3 (3=41-60%) | 3 (3=41-60%) | 1 (1=0-20%) | 2 (2=21-40%) |
| CC(C)c1noc(Cn2cc(C(F)(F)F)nc2-c2ccc(Cl)nc2)n1 [Compound 1.139] | 1 (1=0-20%) | 1 (1=0-20%) | 1 (1=0-20%) | 1 (1=0-20%) | 1 (1=0-20%) | 1 (1=0-20%) | 1 (1=0-20%) | 1 (1=0-20%) |
| CCCn1nnnc1Cn1cc(C(F)(F)F)nc1-c1ccc(Cl)nc1 [Compound 1.140] | 1 (1=0-20%) | 1 (1=0-20%) | 1 (1=0-20%) | 1 (1=0-20%) | 1 (1=0-20%) | 1 (1=0-20%) | 1 (1=0-20%) | 1 (1=0-20%) |
| Cc1noc(C)c1Cn1cc(C(F)(F)F)nc1-c1ccc(Cl)nc1 [Compound 1.141] | 1 (1=0-20%) | 1 (1=0-20%) | 1 (1=0-20%) | 1 (1=0-20%) | 1 (1=0-20%) | 1 (1=0-20%) | 1 (1=0-20%) | 1 (1=0-20%) |
| CN(C)S(=O)(=O)c1cc(Cn2cc(C(F)(F)F)nc2-c2ccc(Cl)nc2)co1 [Compound 1.144] | 1 (1=0-20%) | 1 (1=0-20%) | 1 (1=0-20%) | 1 (1=0-20%) | 1 (1=0-20%) | 1 (1=0-20%) | 1 (1=0-20%) | 1 (1=0-20%) |
| Cc1cc(Cn2cc(C(F)(F)F)nc2-c2ccc(Cl)nc2)n(C)n1 [Compound 1.147] | 2 (2=21-40%) | 3 (3=41-60%) | 1 (1=0-20%) | 3 (3=41-60%) | 2 (2=21-40%) | 2 (2=21-40%) | 1 (1=0-20%) | 4 (4=61-80%) |
| FC(F)(F)c1cn(Cc2sc(Cl)nc2Cl)c(-c2ccc(Cl)nc2)n1 [Compound 1.148] | 1 (1=0-20%) | 1 (1=0-20%) | 1 (1=0-20%) | 1 (1=0-20%) | 1 (1=0-20%) | 1 (1=0-20%) | 1 (1=0-20%) | 1 (1=0-20%) |
| FC(F)(F)c1cn(Cc2cnc(Cl)s2)c(-c2ccc(Cl)nc2)n1 [Compound 1.150] | 1 (1=0-20%) | 1 (1=0-20%) | 1 (1=0-20%) | 1 (1=0-20%) | 2 (2=21-40%) | 2 (2=21-40%) | 1 (1=0-20%) | 1 (1=0-20%) |
| Cc1noc(Cn2cc(C(F)(F)F)nc2-c2cnc(F)c(Cl)c2)n1 [Compound 1.151] | 5 (5=81-100%) | 5 (5=81-100%) | 3 (3=41-60%) | 4 (4=61-80%) | 5 (5=81-100%) | 5 (5=81-100%) | 3 (3=41-60%) | 5 (5=81-100%) |
| Fc1ncc(-c2nc(C(F)(F)F)cn2Cc2ccc(Cl)s2)cc1Cl [Compound 1.152] | 5 (5=81-100%) | 5 (5=81-100%) | 1 (1=0-20%) | 2 (2=21-40%) | 5 (5=81-100%) | 5 (5=81-100%) | 3 (3=41-60%) | 1 (1=0-20%) |
| Cn1ccc(Cn2cc(C(F)(F)F)nc2-c2cnc(F)c(Cl)c2)n1 [Compound 1.153] | 5 (5=81-100%) | 5 (5=81-100%) | 5 (5=81-100%) | 4 (4=61-80%) | 5 (5=81-100%) | 5 (5=81-100%) | 5 (5=81-100%) | 5 (5=81-100%) |
| Cc1cc(Cn2cc(C(F)(F)F)nc2-c2cnc(F)c(Cl)c2)ns1 [Compound 1.154] | 5 (5=81-100%) | 5 (5=81-100%) | 5 (5=81-100%) | 4 (4=61-80%) | 5 (5=81-100%) | 5 (5=81-100%) | 5 (5=81-100%) | 5 (5=81-100%) |
| Cc1nc(Cn2cc(C(F)(F)F)nc2-c2ccc(S(C)(=O)=O)cc2)no1 [Compound 1.159] | 5 (5=81-100%) | 5 (5=81-100%) | 2 (2=21-40%) | 5 (5=81-100%) | 5 (5=81-100%) | 5 (5=81-100%) | 1 (1=0-20%) | 5 (5=81-100%) |
| Cc1nc(Cn2cc(C(F)(F)F)nc2-c2cnc(F)c(Cl)c2)no1 [Compound 1.160] | 5 (5=81-100%) | 5 (5=81-100%) | 5 (5=81-100%) | 4 (4=61-80%) | 5 (5=81-100%) | 5 (5=81-100%) | 5 (5=81-100%) | 5 (5=81-100%) |
| Cc1cc(Cn2cc(C(F)(F)F)nc2-c2ccc(S(C)(=O)=O)cc2)ns1 [Compound 1.161] | 5 (5=81-100%) | 5 (5=81-100%) | 5 (5=81-100%) | 5 (5=81-100%) | 5 (5=81-100%) | 5 (5=81-100%) | 5 (5=81-100%) | 5 (5=81-100%) |
| Cc1cc(Cn2cc(C(F)(F)F)nc2-c2ccc(F)c(F)c2)ns1 [Compound 1.162] | 5 (5=81-100%) | 5 (5=81-100%) | 5 (5=81-100%) | 4 (4=61-80%) | 5 (5=81-100%) | 5 (5=81-100%) | 5 (5=81-100%) | 3 (3=41-60%) |

From US20260125360A1, “HERBICIDAL IMIDAZOLE COMPOUNDS” (SYNGENTA CROP PROTECTION AG, priority 2022, published 2026)
